From US6239107A, “Conjugates of lipophilic moieties and fragments of vasoactive intestinal peptide (VIP)” (Yeda Research & Development Co., Ltd., priority 1996, dated 2001)
Non-standard residues stand in square brackets, D forms with d. Residues, ends and D or L forms follow the SMILES beside them. *: point of attachment. Stearoyl = CCCCCCCCCCCCCCCCCC(=O)*; Lauroyl = CCCCCCCCCCCC(=O)*

Assays:
[1] = Biodistribution to brain after intranasal application of radioiodinated conjugate; format: in vivo, rat; conditions: thirty minutes after application, FIG. 15
Description: St-Lys-Lys-Tyr-Leu-NH2 (SEQ ID NO:6) was radioiodinated by using the chloramine T methods as described in Gozes et al., Endocrinology, 134:2121-2125 (1994) and about 7.8×10^6 cpm/2 μl 5% Sefsol™, 20% isopropanol/rat were applied intranasally to 250-300 g rats. Animals were sacrificed 30 minutes following drug administration and the frontal cortex was removed, weighed and counted for radioactivity in a gamma counter. Radioactive tissue samples (containing 1400 cpm/gram sample) were thereafter homogenized and subjected to centrifugation (5,400 g for 25 min.). Supernatants were then subjected to HPLC analysis against St-Lys-Lys-Tyr-Leu-NH2 (SEQ ID NO:6) as a marker (eluting using an acetonitrile gradient at fraction 25). Samples were monitored for radioactivity in a gamma counter.

[2] = same amounts of radiolabeled conjugate; Gozes et al., Endocrinology 134:2121-2125 (1994); cited from earlier work
[3] = test system: Apolipoprotein E-deficient newborn mice; assay: Acquisition of developmental milestones in a model for mental retardation; format: in vivo; conditions: ApoE deficient newborn mice, s.c. injection
Description: It has recently been discovered that mice deficient in apolipoprotein E (ApoE) (Plump et al., Cell, 71:343-363 (1992)) are retarded in their acquisition of developmental milestones.
8 newborn normal mice were injected (s.c. 1.2 μg 120 μu) with St-Lys-Lys-Tyr-Leu-NH2 or with saline. 8 ApoE deficient newborn mice were treated similarly.

[4] = test system: male rats (Wistar) injected i.c.v. with the cholinergic blocker AF64A; conditions: rat, in vivo
Description: In vivo Model for Cholinergic Inhibition. 18 Male rats (Wistar, 250-300 g) were injected intracerebroventricularly (i.c.v.) at a rate of 0.21 μl/min., using plastic tubing (PE-20) attached to 25G needle; controls received an injection of saline 2 μl/side, experimental animals received injections of the cholinergic blocker (ethylcholine aziridium) AF64A (3 nmol/2 μl/side).
Drug treatment was initiated 7-10 days after AF64A injection. Animals were divided into two equal groups. Test group received daily nasal administration of St-Lys-Lys-Tyr-Leu-NH2 (SEQ ID NO:6) dissolved in 10% Sefsol™ and 40% isopropanol at a concentration of 10 μg/40 μl (20 μl administered through each nostril). […]
Rats were placed in a circular pool, 1.26 m in diameter, 0.2 m deep, equipped with a clear plexiglas column, with a 13.3 cm platform reaching just below the surface of the water (22-24° C). […] The latency of reaching the platform was recorded for each rat (in seconds) and the changes over days of training were graphed, which reflect learning and memory.
FIG. 3 depicts the effects of St-Lys-Lys-Tyr-D-Ala-NH2 (indicated KKYO in the figure) on learning and memory in the Alzheimer's in vivo test (AF64A-cholinotoxicity test) as described above. […] Following this test the platform is placed back in the water pool, but this time it is visible to the swimming rat and the time required to reach it is measured. […]

[5] = test system: rat cerebral cortical cell cultures (neurons) treated with β-amyloid peptide (amino acids 25-35); assay: Neuronal survival assay, protection against β-amyloid toxicity; format: cell-based; conditions: 5 days
Description: β-Amyloid peptide is known to be involved in Alzheimer's disease and is a toxic substance to neurons grown in culture (Pike et al., J. of Nezarosci., 13(4), 1676-1687 (1993); Yankner et al., Science, 250:279-282 (1990); Gozes et. al., Proc. Natl. Acad. Sci. USA, 93:[…] (1996)).
Rat cerebral cortical cell cultures were prepared by a slight modification of the techniques described by Forsythe and Westbrook (J. Physiol. Lord. 365:515, (1988)), in which cerebral cortex was used instead of hippocampus and newborn rats were utilized instead of E16 mice. Cerebral cortical cells (1.5-15×10^5 cells/35 mm dish) were plated on confluent cerebral cortical astrocyte feeder cultures as described (Gozes et al., J. Pharmacol Erp. Therap., 257:959-966 (1991)). The culture medium was DMEM-(Dulbeco Modified Eagle Medium) containing 5% horse serum and N3 [media supplement containing a hormone cocktail, according to (Romijn et al., Brain Res., 254:(4),583-589 (1981))]. After eight days growth in vitro, the cultures were given a complete change of medium and then were treated with the β-amyloid peptide (amino acids 25-35) for 5 days.
The β-amyloid peptide fragment was dissolved in water to a finalconcentration of 2.5 mM. […] Neurons were counted without knowledge of type of treatment as before. […]

Molecule: CCCCCCCCCCCCCCCCCC(=O)N[C@@H](CCCCN)C(=O)N[C@@H](CCCCN)C(=O)N[C@@H](Cc1ccc(O)cc1)C(=O)N[C@@H](CC(C)C)C(N)=O [St-Lys-Lys-Tyr-Leu-NH2] (Stearoyl-KKYL-NH2)
- intact conjugate in brain extract by HPLC [1]: could be observed in the brain

Molecule: St-Nle^17 -VIP-NH2
- radioactivity obtained in the intestine [2]: 3700 cpm/g
- forelimb placing behavior acquisition ([3]; versus untreated ApoE deficient mice, FIGS. 10 and 11): improved their placing acquisition essentially to the level of control
- cliff avoidance acquisition ([3]; FIGS. 12 and 13): even better cliff avoidance acquisition than normal controls or similar cliff avoidance behavior to control

Molecule: CCCCCCCCCCCCCCCCCC(=O)N[C@@H](CCCCN)C(=O)N[C@@H](CCCCN)C(=O)N[C@@H](Cc1ccc(O)cc1)C(=O)N[C@H](C)C(N)=O [St-Lys-Lys-Tyr-D-Ala-NH2] (Stearoyl-KKY[dA]-NH2)
- time required to reach the visible platform (possible motor deficits) [4]: no differences between the groups

Molecule: CCCCCCCCCCCC(=O)N[C@@H](CCCCN)C(=O)N[C@@H](CCCCN)C(=O)N[C@@H](Cc1ccc(O)cc1)C(=O)N[C@@H](CC(C)C)C(N)=O [Lau-Lys-Lys-Tyr-Leu-NH2] (Lauroyl-KKYL-NH2)
- Active concentration (M) ([5]; added together with 25 μM β-amyloid peptide (25-35), NSE-stained neuron counts): 10^-11 -10^-10 M
- Neuronal survival (%) ([5]; at the active concentration, with 25 μM β-amyloid peptide (25-35), as compared to control): 83-84%
